This note sets out measurements from patent US20230255974A1, “USE OF THYROMIMETICS FOR THE TREATMENT OF CANCER” (THE UNIVERSITY OF VERMONT, priority 2020, published 2023).

Each structure is given as a SMILES string.

In assay [1] the test system is SW1736, 8505C, OCUT2, and KTC-2 cells. In words: Thyrosphere outgrowth, unmodified ATC cell lines. The assay is classed as cell-based, human. As to conditions: inhibitor three days before plating, or 10 nM GC-1 for 7 days.
Procedure: Tumorsphere Assay. Cancer stem cell tumorspheres formed from ATC cells (thyrospheres) were used to assess self-renewal and sphere-forming efficiency. For generating thyrospheres, adherent monolayer cells were dissociated with Trypsin-EDTA, and single cells were moved to round-bottom ultra-low attachment 24-well plates at a density of 1000 cells/well (Corning). […] Where indicated, adherent cells were treated with 0.5 μM Buparlisib, 0.5 μM Alpelisib, 1 nM Palbociclib, 5 μM Sorafenib, or vehicle for 72 hours prior to thyrosphere-forming assay. […] Thyrospheres grew for seven days and were then counted with an inverted microscope.
A further assay concerns MCF7. In words: Mammosphere growth, Luminal A breast cancer cells. The assay is classed as cell-based. The note with it: MCF7, 10 nM GC-1, 5 days.
A further assay deals with MDA-MB-453 cells. In words: Relative cell growth by cell counting, HER2+ breast cancer cells. The note with it: MDA-MB-453, 10 nM GC-1, 8 days. The assay is classed as cell-based. As to the method: A similar study was then performed in MDA-MB-453 cells, human epidermal growth factor positive-HER2+, breast cancer cells.

Source text for MCF7: Data are mean+/−SD; * indicates p<0.05 determined by t-test.

Turning to `CNC(=O)c1cc(Oc2ccc(NC(=O)Nc3ccc(Cl)c(C(F)(F)F)c3)cc2)ccn1` [Sorafenib, 4-[4-[[4-chloro-3-(trifluoromethyl)phenyl]carbamoylamino]phenoxy]-N-methylpyridine-2-carboxamide], in assay [1], the “thyrosphere formation/outgrowth, agent alone” value is listed as “most effective overall”.

As to `Cc1nc(NC(=O)N2CCC[C@H]2C(N)=O)sc1-c1ccnc(C(C)(C)C(F)(F)F)c1` [Alpelisib, (2S)-1-N-[4-methyl-5-[2-(1,1,1-trifluoro-2-methylpropan-2-yl)pyridin-4-yl]-1,3-thiazol-2-yl]pyrrolidine-1,2-dicarboxamide], the “effect of inhibitor in the presence of GC-1” value in the assay on MCF7 is recorded as “enhanced the effect”. Further, in the assay with MDA-MB-453 cells, the “cell growth, inhibitor in the presence of GC-1” value is “enhanced the effect of Alpelisib in reducing cell growth”.
